Results as given in US20240293558A1, “KRAS INHIBITOR CONJUGATES” (Erasca, Inc., priority 2021, published 2024).
Where two headings read alike, the source gives them in different places.

How the values were obtained:
KRAS (WT) = target: T1, KRAS (WT) (Homo sapiens, UniProt P01116); experiment: In-vitro RAS-RAF binding assay (RRB), HTRF/FRET; format: biochemical; details: read-out: Inhibition of RAS-RAF Binding (in-vitro) KRAS (WT) IC50
T1 construct: Biotinylated KRAS protein amino acids 1-169 (produced at Erasca); made in house
In short: (§1)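 Compounds preincubated with terbium-labelled biotinylated KRAS (aa 1-169, 30 nM) before 60 min SOS1-catalysed exchange to GTPgS. Binding of the d2-labelled cRAF RBD (30 nM) is read as FRET at equilibrium in duplicate. Buffer: 50 mM HEPES pH 7.5, 100 mM NaCl, 1 mM MgCl2, 1 mM DTT.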

KRAS G12D = KRAS G12D (Homo sapiens, UniProt P01116, G12D); experiment: In-vitro RAS-RAF binding assay (RRB), HTRF/FRET; format: biochemical; set-up: Biotinylated KRAS protein amino acids 1-169 (produced at Erasca); made in house; details: read-out: Inhibition of RAS-RAF Binding (in-vitro) KRAS (G12D) IC50
In short: as §1

[1] = target: T2, KRas G12D fused to HiBiT peptide (Homo sapiens, UniProt P01116, G12D); experiment: ASPC-1 HiBit assay to determine G12D degradation; format: cell-based; details: AsPC-1 HiBiT cells, 24-hour incubation; read-out: ASPC-1 HiBit DC50 (C)
T2 construct: endogenous in cells; host or cells: AsPC-1 HiBiT knock-in single clone (Cas9 RNP + ssODN)
Protocol: Compounds presented herein induce degradation of the KRas G12D (KRasG12D) upon treatment of engineered cancer cell line.
The degradation of the KRasG12D in cellular environment was measured using engineered homozygous KRasG12D AsPC-1 cell line in which KRas G12D was fused to luminescent HiBiT peptide at the N-terminal. The small (1.3 kDa) HiBiT peptide complements with high affinity to a larger (18 kDa) subunit evolved from NanoLuc (termed LgBiT). The resulting complex (i.e., reconstituted luciferase enzyme) generates bright luminescence that translates to high sensitivity (1 amol), broad dynamic range (four orders of magnitude), and rapid kinetics for real time quantitation.
To generate HiBit KRasG12D knock-in cell line, sgRNA (SEQ. ID NO: 1) and ssODN (SEQ. ID NO: 2) were designed and synthesized at GenScript.
RNP complex was generated by mixing of 100 pmol of Cas9 protein to PCR tubes containing 300 pmol sgRNA incubating the resultant complex at room temperature for 20 min. […] ssODN was added to RNP complex slowly and RNP-ssODN complex was incubated at room temperature for 10 min. RNP-ssODN complex was mixed with […] of AsPC-1 cells (1×10^6 cells total) and electroporated using Nucleofactor (Program CM-150). Cells were then incubated at ambient temperature for 5 min and transferred to a six-well plate containing 2 ml growth medium.
To select pools with the highest luminescence signal, 10^4 cells of parental AsPC-1 and transfected pools were plated in solid white 384-well tissue culture plates. 24 hours after seeding, HiBiT was detected using the Nano-Glo HiBiT Lytic Detection System (Promega) following manufacturer's instructions. Briefly, […] of Nano-Glo HiBiT Lytic Detection Reagent was added directly to the cells and mixed by inversion before recording luminescence on an Envision (Perkin-Elmer) with 0.5 s integration time.
Single clones were isolated from stable pool by limited dilution method and presence of HiBiT knock-in was verified by TA cloning and subsequent sequencing. Additionally, western blotting analysis was conducted to confirm selection of single clones with high luminescence signal.
For DC50S measurements, AsPC-1 HiBiT single clone cells were grown in RPMI 1640 medium (Invitrogen 22400-089) supplemented with 10% fetal bovine serum. Cells were seeded in 384-well tissue culture plates at a density of 7,000 cells/well and allowed to attach for 24 hours.
Test compounds were distributed directly into assay plate with the adjustment for DMSO concentration using Tecan HP D300e. For most of the experiments, the final concentration of compounds starts from 10 μM, 3-fold dilution dose response and 10 doses. […] DMSO final concentration is 1%. Each concentration of exemplary compound was tested as singleton. The negative control wells were cells with DMSO only, and the positive control wells were cells with […] inhibitor.
Following 24-hour incubation with the compounds plate and Nano-Glo® HiBiT Lytic reagents were equilibrated to room temperature. 20 μL of HiBiT Lytic reagent were added to each well. The assay plate was incubated on digital microplate shaker (350 rpm) for 20 min followed by centrifugation at 500 g for 1 min. Luminescence was recorded using Envision (Perkin-Elmer) using aperture 384-L1 with 0.1 s integration time.
HiBiT signal are used to calculate the % degradation at given compound concentration using the following formula:
% Degradation=(1−(Sample HiBiT signal−Ave Min signal)/(Ave Max signal−Ave Min signal))*100%
For DC50 calculation, the data with the hook effect were removed first and DC50S was reported using a 4-parameter fit of dose response curve using GraphPad in those cases where maximum % degradation was >50% and Minimal % degradation was <50%. The decrease in DC50 reflects that the exemplary compound led to a higher level of degradation of KRasG12D than another exemplary compound at specific timepoint of treatment of cancer cell line. […]

[2] = Table 2, average of multiple runs of each compound

T1 sequence (P01116 1-169 isoform P01116-2): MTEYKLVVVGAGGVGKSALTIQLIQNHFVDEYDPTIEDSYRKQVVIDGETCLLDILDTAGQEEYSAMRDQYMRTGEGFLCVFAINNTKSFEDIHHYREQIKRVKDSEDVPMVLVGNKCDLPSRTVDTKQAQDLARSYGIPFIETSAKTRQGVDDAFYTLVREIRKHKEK
KRAS G12D, sequence (P01116 1-169 isoform P01116-2 G12D): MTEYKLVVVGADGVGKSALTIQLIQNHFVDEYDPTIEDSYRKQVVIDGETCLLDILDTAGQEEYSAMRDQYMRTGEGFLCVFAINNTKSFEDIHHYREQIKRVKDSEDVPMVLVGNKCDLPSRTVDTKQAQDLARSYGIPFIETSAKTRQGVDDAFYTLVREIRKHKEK
T2 sequence (P01116 1-188 isoform P01116-2 G12D): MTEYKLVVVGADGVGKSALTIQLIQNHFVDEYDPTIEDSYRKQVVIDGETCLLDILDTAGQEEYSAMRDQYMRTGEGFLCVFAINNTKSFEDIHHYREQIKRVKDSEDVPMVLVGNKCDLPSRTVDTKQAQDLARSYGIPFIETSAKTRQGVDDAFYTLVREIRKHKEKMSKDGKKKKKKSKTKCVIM

Structure (SMILES)	IC50 (KRAS (WT); Table 1) [nM]	IC50 (KRAS (WT); [2]) [nM]	IC50 (KRAS G12D; Table 1) [nM]	IC50 (KRAS G12D; [2]) [nM]	DC50 [1] [nM]
C#Cc1c(F)ccc2cc(O)cc(-c3ncc4c(N5CC6CCC(C5)N6)nc(OC[C@@H]5CCCN5CCCOCCC(=O)N[C@H](C(=O)N5C[C@H](O)C[C@H]5C(=O)N[C@@H](C)c5ccc(-c6scnc6C)cc5)C(C)(C)C)nc4c3F)c12 [Example 13, (2S,4R)-1-[(2S)-2-[3-[3-[(2S)-2-[[4-(3,8-diazabicyclo[3.2.1]octan-3-yl)-7-(8-ethynyl-7-fluoro-3-hydroxy-1-naphthyl)-8-fluoro-pyrido[4,3-d]pyrimidin-2-yl]oxymethyl]pyrrolidin-1-yl]propoxy]propanoylamino]-3,3-dimethyl-butanoyl]-4-hydroxy-N-[(1S)-1-[4-(4-methylthiazol-5-yl)phenyl]ethyl]pyrrolidine-2-carboxamide]	49	49.1	13.6	13.6	444
C#Cc1c(F)ccc2cc(O)cc(-c3ncc4c(N5CC6CCC(C5)N6)nc(OC[C@@H]5CCCN5CCCOCCC(=O)N[C@H](C(=O)N5C[C@H](O)C[C@H]5C(=O)N[C@@H](C)c5ccc(-c6c(F)cccc6F)cc5)C(C)(C)C)nc4c3F)c12 [Example 14, (2S,4R)-1-[(2S)-2-[3-[3-[(2S)-2-[[4-(3,8-diazabicyclo[3.2.1]octan-3-yl)-7-(8-ethynyl-7-fluoro-3-hydroxy-1-naphthyl)-8-fluoro-pyrido[4,3-d]pyrimidin-2-yl]oxymethyl]pyrrolidin-1-yl]propoxy]propanoylamino]-3,3-dimethyl-butanoyl]-N-[(1S)-1-[4-(2,6-difluorophenyl)phenyl]ethyl]-4-hydroxy-pyrrolidine-2-carboxamide]	41.9	41.9	9.4	9.4	331
C#Cc1c(F)ccc2cc(O)cc(-c3ncc4c(N5CC6CCC(C5)N6)nc(OCCN5CCC(COc6cc([C@H](C(=O)N7C[C@H](O)C[C@H]7C(=O)N[C@@H](C)c7ccc(-c8c(F)cccc8F)cc7)C(C)C)on6)CC5)nc4c3F)c12 [Example 15, (2S,4R)-1-((2R)-2-(3-((1-(2-((4-(3,8-diazabicyclo[3.2.1]octan-3-yl)-7-(8-ethynyl-7-fluoro-3-hydroxynaphthalen-1-yl)-8-fluoropyrido[4,3-d]pyrimidin-2-yl)oxy)ethyl)piperidin-4-yl)methoxy)isoxazol-5-yl)-3-methylbutanoyl)-N—((S)-1-(2′,6′-difluoro-[1,1′-biphenyl]-4-yl)ethyl)-4-hydroxypyrrolidine-2-carboxamide]	–	1320	–	12.7	112
C#Cc1c(F)ccc2cc(O)cc(-c3ncc4c(N5CC6CCC(C5)N6)nc(OCCN5CCC6(CC5)CN(c5cc([C@H](C(=O)N7C[C@H](O)C[C@H]7C(=O)N[C@@H](C)c7ccc(-c8c(F)cccc8F)cc7)C(C)C)on5)C6)nc4c3F)c12 [Example 16, (2S,4R)-1-[(2R)-2-[3-[7-[2-[4-(3,8-diazabicyclo[3.2.1]octan-3-yl)-7-(8-ethynyl-7-fluoro-3-hydroxy-1-naphthyl)-8-fluoro-pyrido[4,3-d]pyrimidin-2-yl]oxyethyl]-2,7-diazaspiro[3.5]nonan-2-yl]isoxazol-5-yl]-3-methyl-butanoyl]-N-[(1S)-1-[4-(2,6-difluorophenyl)phenyl]ethyl]-4-hydroxy-pyrrolidine-2-carboxamide]	–	940	–	9.79	69.7
CC(C)[C@@H](C(=O)N1C[C@H](O)C[C@H]1C(=O)N[C@@H](C)c1ccc(-c2c(F)cccc2F)cc1)c1cc(OCC2CCN(CCOc3nc(N4CC5CCC(C4)N5)c4cc(Cl)c(-c5ccc(F)c6sc(N)c(C#N)c56)c(F)c4n3)CC2)no1 [Example 17, (2S,4R)-1-((2R)-2-(3-((1-(2-((7-(2-amino-3-cyano-7-fluorobenzo[b]thiophen-4-yl)-4-(3,8-diazabicyclo[3.2.1]octan-3-yl)-6-chloro-8-fluoroquinazolin-2-yl)oxy)ethyl)piperidin-4-yl)methoxy)isoxazol-5-yl)-3-methylbutanoyl)-N—((S)-1-(2′,6′-difluoro-[1,1′-biphenyl]-4-yl)ethyl)-4-hydroxypyrrolidine-2-carboxamide]	–	2830	–	15.6	244
CC(C)[C@@H](C(=O)N1C[C@H](O)C[C@H]1C(=O)N[C@@H](C)c1ccc(-c2c(F)cccc2F)cc1)c1cc(OCC2CCN(CCOc3nc(N4CC5CCC(C4)N5)c4cc(C(F)(F)F)c(-c5ccc(F)c6sc(N)c(C#N)c56)c(F)c4n3)CC2)no1 [Example 18, (2S,4R)-1-((2R)-2-(3-((1-(2-((7-(2-amino-3-cyano-7-fluorobenzo[b]thiophen-4-yl)-4-(3,8-diazabicyclo[3.2.1]octan-3-yl)-8-fluoro-6-(trifluoromethyl)quinazolin-2-yl)oxy)ethyl)piperidin-4-yl)methoxy)isoxazol-5-yl)-3-methylbutanoyl)-N—((S)-1-(2′,6′-difluoro-[1,1′-biphenyl]-4-yl)ethyl)-4-hydroxypyrrolidine-2-carboxamide]	–	3140	–	24.9	247
C[C@H](NC(=O)[C@@H]1C[C@@H](O)CN1C(=O)[C@@H](NC(=O)CCOCCCN1CCCC1COc1nc(N2CC3CCC(C2)N3)c2cc(Cl)c(-c3ccc(F)c4sc(N)c(C#N)c34)c(F)c2n1)C(C)(C)C)c1ccc(-c2c(F)cccc2F)cc1 (stereo partly drawn) [Example 19, (2S,4R)-1-((2S)-2-(3-(3-((2S)-2-((((7R)-7-(2-amino-3-cyano-7-fluorobenzo[b]thiophen-4-yl)-4-(3,8-diazabicyclo[3.2.1]octan-3-yl)-6-chloro-8-fluoroquinazolin-2-yl)oxy)methyl)pyrrolidin-1-yl)propoxy)propanamido)-3,3-dimethylbutanoyl)-N—((S)-1-(2′,6′-difluoro-[1,1′-biphenyl]-4-yl)ethyl)-4-hydroxypyrrolidine-2-carboxamide]	–	77.7	–	7.67	63.2
C#Cc1c(F)ccc2cc(O)cc(-c3ncc4c(N5CC6CCC(C5)N6)nc(OC[C@@H]5CCCN5CCCOCCC(=O)N[C@H](C(=O)N5C[C@H](O)C[C@H]5C(=O)N[C@@H](C)c5ccc(-c6c(F)cc(F)cc6F)cc5)C(C)(C)C)nc4c3F)c12 [Example 49, (2S,4R)-1-((2S)-2-(3-(3-((2S)-2-(((4-(3,8-diazabicyclo[3.2.1]octan-3-yl)-7-(8-ethynyl-7-fluoro-3-hydroxynaphthalen-1-yl)-8-fluoropyrido[4,3-d]pyrimidin-2-yl)oxy)methyl)pyrrolidin-1-yl)propoxy)propanamido)-3,3-dimethylbutanoyl)-4-hydroxy-N-((S)-1-(2′,4′,6′-trifluoro-[1,1′-biphenyl]-4-yl)ethyl)pyrrolidine-2-carboxamide]	–	24.9	–	7.43	324
